Test results taken from article PMC8998978, “Toward a Treatment of Cancer: Design and In Vitro/In Vivo Evaluation of Uncharged Pyrazoline Derivatives as a Series of Novel SHP2 Inhibitors” (International Journal of Molecular Sciences, 2022).

How the values were obtained:
HCT116 cells [1] = assay: Cell viability assay (SRB); format: cell-based, human
From the text: Human colon cancer cell line HCT116, hepatoma cell lines HepG2 and BEL-7402, lung adenocarcinoma cell lines NCI-H1975 and 95-D, pancreatic cancer cell line Panc-1, breast cancer cell line MDA-MB-231, NSCLC cell line NCI-H1299, ovarian cancer cell line SK-OV-3, leukemia cell line K562, glioma cell line U87, colon epithelial cell line NCM460 and umbilical vein endothelial cell line HUVEC were purchased from the Institute of Biochemistry and Cell Biology, Chinese Academy of Sciences (Shanghai, China). HCT116 cell line was cultured in McCoy’s 5A medium (Hyclone, Logan, UT, USA). HepG2, 95-D, Panc-1, MDA-MB-231, BEL-7402, SK-OV-3, U87 and NCM460 cell lines were cultured in DMEM-High glucose medium (Hyclone, Logan, UT, USA). NCI-H1975, NCI-H1299 and HUVEC cell lines were cultured in RPMI 1640 medium (Hyclone, Logan, UT, USA). K562 cell line was cultured in IMDM medium (Hyclone, Logan, UT, USA). […]
The inhibition rate of cell viability was detected by 3-(4,5-dimethyl-2-thiazolyl)-2,5-diphenyl-2-H-tetrazolium bromide (MTT, Solarbio, Beijing, China) or Sulforhodamine B (SRB, Sigma-Aldrich, St. Louis, MO, USA) assay. […] The absorbance at 570 nm was measured in a multimode reader (Berthold Technologies, Germany). […] Finally, Tris–HCl solution was added, and the absorbance at 515 nm was detected in a multimode reader (Berthold Technologies, Germany).

[2] = target: T1, SHP2 protein in HCT116 cells (Homo sapiens, UniProt Q06124); assay: Cellular thermal shift assay (CETSA); format: cell-based; details: HCT116, 10 μM 4o, 3 h, versus DMSO
T1 construct: endogenous in cells; host or cells: HCT116
T1 sequence (Q06124 1-593): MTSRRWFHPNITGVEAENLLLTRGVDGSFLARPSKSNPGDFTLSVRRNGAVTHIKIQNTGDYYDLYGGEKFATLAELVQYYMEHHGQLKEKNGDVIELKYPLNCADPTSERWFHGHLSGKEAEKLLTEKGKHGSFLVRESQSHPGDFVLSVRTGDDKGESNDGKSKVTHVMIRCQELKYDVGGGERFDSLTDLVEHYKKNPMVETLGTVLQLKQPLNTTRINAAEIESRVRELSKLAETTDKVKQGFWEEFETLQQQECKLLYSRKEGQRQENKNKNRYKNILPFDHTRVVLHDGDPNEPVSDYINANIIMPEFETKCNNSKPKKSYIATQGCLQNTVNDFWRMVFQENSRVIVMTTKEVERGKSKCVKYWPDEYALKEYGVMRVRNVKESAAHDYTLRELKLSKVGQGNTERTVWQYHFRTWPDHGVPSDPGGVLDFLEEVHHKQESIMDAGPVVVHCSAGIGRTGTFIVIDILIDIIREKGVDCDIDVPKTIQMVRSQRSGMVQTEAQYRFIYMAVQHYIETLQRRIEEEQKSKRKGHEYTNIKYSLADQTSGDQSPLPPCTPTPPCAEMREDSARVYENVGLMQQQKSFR
Method: The assay was performed as described previously. In brief, HCT116 cells were treated with DMSO or 4o for 3 h. Cells were resuspended in PBS and divided into four aliquots, and then the cell lysates were heated at different temperatures by T100^TM Thermal Cycler (Bio-Rad, Hercules, CA, USA). The heated cells were subjected to repeated freezing and thawing with liquid nitrogen for three times followed by centrifugation at 20,000× g for 20 min at 4 °C. Finally, the supernatants were gathered and boiled for 10 min after adding the loading buffer. Protein levels were assessed by Western blotting.

[3] = target: T2, recombinant human SHP2 protein (Homo sapiens, UniProt Q06124); assay: Inhibition type of SHP2 (double reciprocal plot, pNPP); format: biochemical; details: 4o 0, 0.5, 1, 2 µM; various pNPP concentrations
T2 sequence (Q06124 1-593): T1 sequence (Q06124 1-593)
Method: Inhibition kinetic studies were performed with various concentrations of pNPP in the absence or presence of inhibitors. The experimental results were analyzed using double reciprocal plotting to evaluate the type of inhibition.
The experimental process was similar to the SHP2 inhibition assay. In the assay, the initial rates at a series of pNPP concentrations were determined at various fixed inhibitor concentrations of 4o (0 µM, 0.5 µM, 1 µM and 2 µM) as described above. The values of 1/[S] and 1/[V] were obtained from the substrate concentration and initial reaction rate, and were plotted on the x-axis and y-axis, respectively. The inhibition type of SHP2 was determined according to the intersection characteristics of the obtained approximate line.

HCT116 cells [4] = assay: Western blotting of apoptosis-related proteins; format: cell-based, human; details: HCT116, 4o 2.5, 5 and 10 μM, 24 h, versus DMSO
Method: (§1) HCT116 cells were harvested, lysed on ice in RIPA buffer (Beyotime Institute of Biotechnology, Shanghai, China) and boiled. Protein concentration was measured by BCA protein assay kit (Beyotime Institute of Biotechnology, Shanghai, China). The protein samples were separated by SDS-PAGE and transferred to the membrane (Pall, New York, NY, USA). Afterwards, the membrane was immunoblotted with the corresponding primary antibody (C-parp (#5625), C-cas9 (#9505), C-cas3 (#9661), Bcl-2 (#4223), Bax (#5023), SHP2 (#3752), P-Erk1/2 (#9101) and Erk1/2 (#9102), 1:1000, Cell Signaling Technology, Danvers, MA, USA; Tubulin (#ET1602-4), 1:5000, HUABIO, Hangzhou, China) and the appropriate HRP-conjugated secondary antibody, and determined with ECL detection reagent (Thermo Scientific, Waltham, MA, USA).

[5] = test system: RAS/MAPK signaling pathway in HCT116 cells; assay: RAS activation assay and p-Erk Western blotting; format: cell-based, human; details: HCT116, 4o 2.5, 5 and 10 μM, 12 h, dose-dependent, versus DMSO
Method: as §1
Active RAS (RAS-GTP) was pulled down from HCT116 cells. Cells were seeded in 6-well plates and treated with different concentrations of 4o for 12 h after overnight serum starvation. Cells were stimulated with 100 ng/mL hEGF for 5 min before cell lysis. On the basis of protein extraction and quantification, RAS activation assay biochem kit (Cytoskeleton Inc., Denver, CO, USA) was used for detection according to the requirements of manufacturers.

For CCOc1ccc(Oc2ccc(C3=NN(C4=NC(=O)CS4)C(c4cc(O)c(O)c(Br)c4Br)C3)cc2)cc1 (stereo not shown) [Compound 4o, 2-(5-(2,3-dibromo-4,5-dihydroxyphenyl)-3-(4-(4-ethoxyphenoxy)phenyl)-4,5-dihydro-1H-pyrazol-1-yl)thiazol-4(5H)-one], the “Growth inhibition of HCT116 cells” value (HCT116 cells [1]; 24, 48 and 72 h) was “time- and dose-dependent manner”, the IC50 (HCT116 cells [1]; Homo sapiens, HCT-116, HCT116, 72 h) was 2.64 ± 0.17 µM and the “Stability of SHP2 protein (CETSA)” value [2] was “obviously increased”. For the same compound, the “Inhibition type of SHP2” value [3] was “competitive SHP2 inhibitor”, the Bax/Bcl-2 ratio (HCT116 cells [4]) was “up-regulated” and the “Levels of cleaved parp, cleaved caspase9 and cleaved caspase3” value (HCT116 cells [4]) was “increased”. For the same compound, the “Levels of RAS-GTP and p-Erk” value [5] was “decreased”.
